These results are taken from US6090828A, “5-aryleheteroarylalkyl-1,3,5-trisubstituted-1,2,4-triazole compounds for treatment of circulatory disorders” (priority 1997, dated 2000).

Read-outs that look alike come from different tables or passages of the source.

Assay [1] deals with smooth muscle angiotensin II receptor. Kind of assay: Assay A: Angiotensin II Binding Activity. The conditions noted are these: 50% displacement of specifically bound 125I-AII; rat uterine membranes; pH 7.5; 25° C., 60 min. As for the experimental part: Compounds of the invention were tested for ability to bind to the smooth muscle angiotensin II receptor using a rat uterine membrane preparation. […] Rat uterine membranes were prepared from fresh tissue. All procedures were carried out at 4° C. Uteri were stripped of fat and homogenized in phosphate-buffered saline at pH 7.4 containing 5 mM EDTA. The homogenate was centrifuged at 1500×g for 20 min., and the supernatant was recentrifuged at 100,000×g for 60 min. The pellet was resuspended in buffer consisting of 2 mM EDTA and 50 mM Tris-HCl (pH 7.5) to a final protein concentration of 4 mg/ml. […] The reaction was initiated by the addition of membrane protein and the mixture was incubated at 25° C. for 60 min. The incubation was terminated with ice-cold 50 mM Tris-HCl (pH 7.5) and the mixture was filtered to separate membrane-bound labelled peptide from the free ligand. The incubation tube and filter were washed with ice-cold buffer. Filters were assayed for radioactivity in a Micromedic gamma counter. Nonspecific binding was defined as binding in the presence of 10 μM of unlabelled AII. Specific binding was calculated as total binding minus nonspecific binding. […] Binding data were analyzed by a nonlinear least-squares curve fitting program.

In a further assay the target is T1, rabbit aortic rings (Oryctolagus cuniculus, UniProt P34976).
T1 construct: The thoracic aorta was removed, cleaned of adherent fat and connective tissue and then cut into 3-mm ring segments; from tissue; host or cells: rabbit thoracic aorta rings, endothelium removed
T1 sequence (P34976 1-359): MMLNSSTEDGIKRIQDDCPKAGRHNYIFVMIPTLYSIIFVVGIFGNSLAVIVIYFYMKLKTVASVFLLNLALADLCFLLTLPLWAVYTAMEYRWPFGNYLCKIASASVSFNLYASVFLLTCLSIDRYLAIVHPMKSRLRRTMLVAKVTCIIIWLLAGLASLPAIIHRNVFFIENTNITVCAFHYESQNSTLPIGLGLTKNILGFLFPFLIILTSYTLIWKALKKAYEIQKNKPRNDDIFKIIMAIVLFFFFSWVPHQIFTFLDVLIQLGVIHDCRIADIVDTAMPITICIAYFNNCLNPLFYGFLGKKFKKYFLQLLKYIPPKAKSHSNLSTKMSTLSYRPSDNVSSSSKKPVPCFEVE
Kind of assay: Assay B: In Vitro Vascular Smooth Muscle Response for AII. Also on record: species or system rabbit (male New Zealand white). To be noted: rabbit aorta rings, two rabbits per antagonist, antagonist 10^-5 M, 5 minutes, AII contraction, Schild. Here is the method: The compounds of the invention were tested for antagonist activity in rabbit aortic rings. Male New Zealand white rabbits (2-2.5 kg) were sacrificed using an overdose of pentobarbital and exsanguinated via the carotid arteries. The thoracic aorta was removed, cleaned of adherent fat and connective tissue and then cut into 3-mm ring segments. The endothelium was removed from the rings by gently sliding a rolled-up piece of filter paper into the vessel lumen. The rings were then mounted in a water-jacketed tissue bath, maintained at 37° C., between moveable and fixed ends of a stainless steel wire with the moveable end attached to an FT03 Grass transducer coupled to a Model 7D Grass Polygraph for recording isometric force responses. […] The preparations were equilibrated for one hour before approximately one gram of passive tension was placed on the rings. Angiotensin II concentration-response curves were then recorded (3×10^-10 to 1×10^-5 M). Each concentration of AII was allowed to elicit its maximal contraction, and then AII was washed out repeatedly for 30 minutes before rechallenging with a higher concentration of AII. Aorta rings were exposed to the test antagonist at 10^-5 M for 5 minutes before challenging with AII. Adjacent segments of the same aorta ring were used for all concentration-response curves in the presence or absence of the test antagonist. […] The pA2 value is the concentration of the antagonist which increases the EC50 value for AII by a factor of two. Each test antagonist was evaluated in aorta rings from two rabbits.

Where [2] appears, read: read-out: pA2 (first of two values) (converted).
[3] abbreviates: read-out: pA2 (second of two values) (converted).

With “5-[2-[5-[[1-ethyl-3-(1,1-difluoroethyl)-1H-1,2,4-triazol-5-yl]methyl]-2-pyridinyl]phenyl]-1H-tetrazole [Example 15]”, in assay [1], the IC50 (in general, the concentration needed to halve the response being measured) was 1700 nM.
In assay [1], `CCCCn1nc(CCc2ccccc2)nc1Cc1ccc(-c2ccccc2-c2nnn[nH]2)nc1` [Example 2, 5-[2-[5-[[1-butyl-3-(2-phenylethyl)-1H-1,2,4-triazol-5-yl]methyl]-2-pyridinyl]phenyl]-1H-tetrazole] gave an IC50 of 17 nM. The Kb on rabbit aortic rings (setting [2]) was 17.4 nM; on rabbit aortic rings (setting [3]), 10.7 nM.
For the molecule `CCCCn1nc(/C=C/c2cccs2)nc1Cc1ccc(-c2ccccc2-c2nnn[nH]2)nc1` [Example 5, 5-[2-[5-[[1-butyl-3-[2-(2-thienyl)ethenyl]-1H-1,2,4-triazol-5-yl]methyl]-2-pyridinyl]phenyl]-1H-tetrazole], in assay [1], the IC50 was determined as 97 nM. The Kb at rabbit aortic rings (setting [2]) is 6.46 nM; at rabbit aortic rings (setting [3]) it was 4.17 nM.
The matching figures for `CCCCCn1nc(CCCC)nc1Cc1ccc(-c2ccccc2-c2nnn[nH]2)nc1` [Example 6, 5-[2-[5-[(1-pentyl-3-butyl-1H-1,2,4-triazol-5-yl)methyl]-2-pyridinyl]phenyl]-1H-tetrazole]: 86 nM, 25.1 nM and 72.4 nM.
For `CCCCCc1nc(Cc2ccc(-c3ccccc3-c3nnn[nH]3)nc2)n(CCCC)n1` [Example 7, 5-[2-[5-[(1-butyl-3-pentyl-1H-1,2,4-triazol-5-yl)methyl]-2-pyridinyl]phenyl]-1H-tetrazole], in that order: 78 nM, 9.33 nM and 21.9 nM.
Take `CCCCc1nc(Cc2ccc(-c3ccccc3-c3nnn[nH]3)nc2)n(CC(CC)CC)n1` [Example 8, 5-[2-[5-[[1-(2-ethylbutyl)-3-butyl-1H-1,2,4-triazol-5-yl]methyl]-2-pyridinyl]phenyl]-1H-tetrazole]: the IC50 in assay [1] amounted to 530 nM. On rabbit aortic rings (setting [3]), the Kb was 603 nM.
`CCCCn1nc(C(=O)CCC)nc1Cc1ccc(-c2ccccc2-c2nnn[nH]2)nc1` [Example 11, 5-[2-[5-[[1-butyl-3-(1-oxobutyl)-1H-1,2,4-triazol-5-yl]methyl]-2-pyridinyl]phenyl]-1H-tetrazole]: in assay [1], the IC50 is 64 nM. Besides, the Kb is 13.5 nM at rabbit aortic rings (setting [2]) and 19.5 nM at rabbit aortic rings (setting [3]).
Take `CCCCn1nc(C(F)CCC)nc1Cc1ccc(-c2ccccc2-c2nnn[nH]2)nc1` (centres unmarked) [Example 12, 5-[2-[5-[[1-butyl-3-(1-fluorobutyl)-1H-1,2,4-triazol-5-yl]methyl]-2-pyridinyl]phenyl]-1H-tetrazole]: in assay [1], the IC50 worked out at 28 nM.
Turning to `CCCn1nc(C(F)F)nc1Cc1ccc(-c2ccccc2-c2nnn[nH]2)nc1` [Example 13, 5-[2-[5-[(1-propyl-3-difluoromethyl-1H-1,2,4-triazol-5-yl)methyl]-2-pyridinyl]phenyl]-1H-tetrazole], the IC50 in assay [1] came to 380 nM. The Kb was 617 nM at rabbit aortic rings (setting [2]) and 282 nM on rabbit aortic rings (setting [3]).
In turn, `CCCCn1nc(C(F)F)nc1Cc1ccc(-c2ccccc2-c2nnn[nH]2)nc1` [Example 14, 5-[2-[5-[(1-butyl-3-difluoromethyl-1H-1,2,4-triazol-5-yl)methyl]-2-pyridinyl]phenyl]-1H-tetrazole] yielded an IC50 in assay [1] of 420 nM. Besides, the Kb at rabbit aortic rings (setting [2]) is 38 nM; on rabbit aortic rings (setting [3]), 178 nM.
The matching figures for `CCCn1nc(C(C)(F)F)nc1Cc1ccc(-c2ccccc2-c2nnn[nH]2)nc1` [Example 16, 5-[2-[5-[[1-propyl-3-(1,1-difluoroethyl)-1H-1,2,4-triazol-5-yl]methyl]-2-pyridinyl]phenyl]-1H-tetrazole]: 410 nM, 126 nM and 66.1 nM.
The matching figures for `CCCCn1nc(C(C)(F)F)nc1Cc1ccc(-c2ccccc2-c2nnn[nH]2)nc1` [Example 17, 5-[2-[5-[[1-butyl-3-(1,1-difluoroethyl)-1H-1,2,4-triazol-5-yl]methyl]-2-pyridinyl]phenyl]-1H-tetrazole]: 160 nM, 26.9 nM and 18.2 nM.
As to `CCCn1nc(C(F)(F)CC)nc1Cc1ccc(-c2ccccc2-c2nnn[nH]2)nc1` [Example 18, 5-[2-[5-[[1-propyl-3-(1,1-difluoropropyl)-1H-1,2,4-triazol-5-yl]methyl]-2-pyridinyl]phenyl]-1H-tetrazole], in assay [1], the IC50 was 370 nM. Also, the figures for the Kb on rabbit aortic rings (setting [2]) and on rabbit aortic rings (setting [3]) were 83.2 nM and 77.6 nM, respectively.
`CCCCn1nc(C(F)(F)CC)nc1Cc1ccc(-c2ccccc2-c2nnn[nH]2)nc1` [Example 19, 5-[2-[5-[[1-butyl-3-(1,1-difluoropropyl)-1H-1,2,4-triazol-5-yl]methyl]-2-pyridinyl]phenyl]-1H-tetrazole] came in with an IC50 in assay [1] of 420 nM. Moreover, the Kb was 20.4 nM on rabbit aortic rings (setting [2]) and 26.3 nM on rabbit aortic rings (setting [3]).
For `CCCCn1nc(C(=O)NC)nc1Cc1ccc(-c2ccccc2-c2nnn[nH]2)nc1` [Example 23, 5-[2-[5-[[1-butyl-3-(N-methylamido)-1H-1,2,4-triazol-5-yl]methyl]-2-pyridinyl]phenyl]-1H-tetrazole], in that order: 70 nM, 70.8 nM and 91.2 nM.
For `CCCCn1nc(C(=O)NC(C)(C)C)nc1Cc1ccc(-c2ccccc2-c2nnn[nH]2)nc1` [Example 24, 5-[2-[5-[[1-butyl-3-(N-tertbutylamido)-1H-1,2,4-triazol-5-yl]methyl]-2-pyridinyl]phenyl]-1H-tetrazole], in that order: 90 nM, 32.4 nM and 120 nM.
In turn, `CCCn1nc(C(OC)OC)nc1Cc1ccc(-c2ccccc2-c2nnn[nH]2)nc1` [Example 25, 5-[2-[5-[[1-propyl-3-dimethoxymethyl-1H-1,2,4-triazol-5-yl]methyl]-2-pyridinyl]phenyl]-1H-tetrazole] registered an IC50 in assay [1] of 180 nM. In addition, the Kb at rabbit aortic rings (setting [2]) was 51.3 nM; at rabbit aortic rings (setting [3]) it was 95.5 nM.
For the molecule `CCCCn1nc(C(OCCC)OCCC)nc1Cc1ccc(-c2ccccc2-c2nnn[nH]2)nc1` [Example 28, 5-[2-[5-[[1-butyl-3-dipropoxymethyl-1H-1,2,4-triazol-5-yl]methyl]-2-pyridinyl]phenyl]-1H-tetrazole], the IC50 in assay [1] came out at 26 nM. Besides, the Kb at rabbit aortic rings (setting [2]) was 38.9 nM; on rabbit aortic rings (setting [3]), 14.1 nM.
The matching figures for `CCCCn1nc(C(OC(C)C)OC(C)C)nc1Cc1ccc(-c2ccccc2-c2nnn[nH]2)nc1` [Example 29, 5-[2-[5-[[1-butyl-3-diisopropoxymethyl-1H-1,2,4-triazol-5-yl]methyl]-2-pyridinyl]phenyl]-1H-tetrazole]: 88 nM, 28.8 nM and 33.9 nM.
For the molecule `CCCCn1nc(C=O)nc1Cc1ccc(-c2ccccc2-c2nnn[nH]2)nc1` [Example 30, 5-[2-[5-[[1-butyl-3-formyl-1H-1,2,4-triazol-5-yl]methyl]-2-pyridinyl]phenyl]-1H-tetrazole], in assay [1], the IC50 was determined as 310 nM. On rabbit aortic rings (setting [2]), the Kb was 214 nM.
Turning to `CCCCn1nc(C(C)(OC)OC)nc1Cc1ccc(-c2ccccc2-c2nnn[nH]2)nc1` [Example 33, 5-[2-[5-[[1-butyl-3-(1,1-dimethoxyethyl)-1H-1,2,4-triazol-5-yl]methyl]-2-pyridinyl]phenyl]-1H-tetrazole], the IC50 in assay [1] is 59 nM. That is a double-digit nanomolar value.
Same read-out and setting: the figure for `CCCCn1nc(C(C)=O)nc1Cc1ccc(-c2ccccc2-c2nnn[nH]2)nc1` [Example 34, 5-[2-[5-[[1-butyl-3-(1-oxoethyl)-1H-1,2,4-triazol-5-yl]methyl]-2-pyridinyl]phenyl]-1H-tetrazole] is 390 nM.
